Test results from patent US6403586B1, “Pyridazine derivatives and drugs containing the same as the active ingredient” (Kowa Co., Ltd., priority 1998, dated 2002).

What was measured:
[1] = tested on: Interleukin-1β (IL-1β) Production in HL-60 cells; test: Inhibitory activity against interleukin-1β production (Test 1); type: cell-based; settings: Homo sapiens, 72 h, lipopolysaccharide 10 μg/ml, culturing for 3 days, compared with control without test sample
Method: (Inhibitory activity against interleukin-1β production)
HL-60 cells were cultured for 4 days until confluence on RPMI 1640 medium with 10% fetal bovine serum (FBS) added thereto. The medium was centrifuged. The supernatant was discarded, and the cells were then suspended at 1×10^6 cells/me on RPMI 1640 medium with 3% FBS, and lipopolysaccharide was added to give a final concentration of 10 μg/ml. The culture was inoculated at 1 ml/well to a 24-well plate. A test compound was added at 1 μl/well, followed by culturing for 3 days. Three days later, the amount of interleukin-1β in each […] was determined by a comparison in yield with a control to which no test sample was added.

IC50 [1] [µM]	melting point	SMILES
–	226.7 to 227.6 °C (dec.)	CNC(=O)c1cc(-c2ccc(OC)cc2)nn(Cc2ccc(NC(=O)c3cccnc3)cc2)c1=O [Example 81, 6-(4-Methoxyphenyl)-4-methylcarbamoyl-2-[4-(3-pyridylcarbonylamino)benzyl]-2H-pyridazin-3-one]
–	154.2 to 156.2 °C	CNC(=O)c1cc(-c2ccc(OC)cc2)nn(Cc2ccc(Cl)cc2Cl)c1=O [Example 82, 2-(2,4-Dichlorobenzyl)-6-(4-methoxy-phenyl)-4-methylcarbamoyl-2H-pyridazin-3-one]
–	184.2 to 185.4 °C	CNC(=O)c1cc(-c2ccc(OC)cc2)nn(CC=Cc2ccc(Cl)cc2)c1=O [Example 85, 2-(4-Chlorocinnamyl)-6-(4-methoxyphenyl)-4-methylcarbamoyl-2H-pyridazin-3-one]
–	222.6 to 224 °C (dec.)	COc1ccc(-c2cc(C(=O)O)c(=O)n(CC=Cc3ccc(Cl)cc3)n2)cc1 [Example 86, 4-Carboxy-2-(4-chlorocinnamyl)-6-(4-methoxyphenyl)-2H-pyridazin-3-one]
0.05	171.2 to 172.1 °C	CCOC(=O)Nc1cc(-c2ccc(OC)cc2)nn(CC=Cc2ccc(Cl)cc2)c1=O [Example 87, 2-(4-Chlorocinnamyl)-4-ethoxycarbonylamino-6-(4-methoxyphenyl)-2H-pyridazin-3-one]
–	123.9 to 127.4 °C	COc1ccc(-c2cc(NC(=O)OC(C)C)c(=O)n(CC=Cc3ccc(Cl)cc3)n2)cc1 [Example 88, 2-(4-chlorocinnamyl)-6-(4-methoxyphenyl)-4-isopropoxycarbonylamino-2H-pyridazin-3-one]
–	190.5 to 191.7 °C	COc1ccc(-c2cc(NC(=O)OCc3ccccc3)c(=O)n(CC=Cc3ccc(Cl)cc3)n2)cc1 [Example 90, 4-benzyloxycarbonylamino-2-(4-chlorocinnamyl)-6-(4-methoxyphenyl)-2H-pyridazin-3-one]
–	187.6 to 188.7 °C	COc1ccc(-c2cc(NC(=O)OCc3ccc(SC)cc3)c(=O)n(CC=Cc3ccc(Cl)cc3)n2)cc1 [Example 91, 2-(4-chlorocinnamyl)-6-(4-methoxyphenyl)-4-[4-(methylthio)benzyloxycarbonylamino]-2H-pyridazin-3-one]
–	130.2 to 131.2 °C	CCOC(=O)Nc1cc(-c2ccc(OC)cc2)nn(CC=C(C)C)c1=O [Example 93, 4-ethoxycarbonylamino-6-(4-methoxy-phenyl)-2-(3-methyl-2-butenyl)-2H-pyridazin-3-one]
–	119.1 to 119.6 °C	CCOC(=O)Nc1cc(-c2ccc(OC)cc2)nn(CC2CC2)c1=O [Example 95, 2-cyclopropylmethyl-4-ethoxycarbonylamino-6-(4-methoxyphenyl)-2H-pyridazin-3-one]
–	152.1 to 162.5 °C	CCOC(=O)Nc1cc(-c2ccc(OC)cc2)nn(Cc2ccccc2)c1=O [Example 97, 2-benzyl-4-ethoxycarbonylamino-6-(4-methoxyphenyl)-2H-pyridazin-3-one]
–	183 to 183.8 °C	COc1ccc(-c2cc(C(=O)O)c(=O)n(CC=Cc3ccc(Cl)cc3)n2)cc1Cl [Example 105, 4-carboxy-2-(4-chlorocinnamyl)-6-(3-chloro-4-methoxyphenyl)-2H-pyridazin-3-one]
0.53	142.7 to 143.2 °C	COc1ccc(-c2cc(N)c(=O)n(CC=Cc3ccc(Cl)cc3)n2)cc1 [Example 111, 4-amino-2-(4-chlorocinnamyl)-6-(4-methoxyphenyl)-2H-pyridazin-3-one]
0.387	213 to 213.8 °C	COc1ccc(-c2cc(NC=O)c(=O)n(CC=Cc3ccc(Cl)cc3)n2)cc1 [Example 112, 2-(4-chlorocinnamyl)-4-formylamino-6-(4-methoxyphenyl)-2H-pyridazin-3-one]
–	158.7 to 161.9 °C	COc1ccc(-c2cc(NC(C)=O)c(=O)n(CC=Cc3ccc(Cl)cc3)n2)cc1 [Example 113, 4-acetylamino-2-(4-chlorocinnamyl)-6-(4-methoxyphenyl)-2H-pyridazin-3-one]
–	147.7 to 148.6 °C	CCC(=O)Nc1cc(-c2ccc(OC)cc2)nn(CC=Cc2ccc(Cl)cc2)c1=O [Example 114, 2-(4-chlorocinnamyl)-6-(4-methoxy-phenyl)-4-propionylamino-2H-pyridazin-3-one]
–	148.4 to 149.2 °C	CNc1cc(-c2ccc(OC)cc2)nn(CC=Cc2ccc(Cl)cc2)c1=O [Example 117, 2-(4-chlorocinnamyl)-6-(4-methoxyphenyl)-4-methylamino-2H-pyridazin-3-one]
–	113.5 to 114.2 °C	COc1ccc(-c2cc(NC(=O)OCCCCCc3ccccc3)c(=O)n(CC=Cc3ccc(Cl)cc3)n2)cc1 [Example 118, 2-(4-chlorocinnamyl)-6-(4-methoxyphenyl)-4-[N-(3-phenylpropyl)ethoxycarbonylamino]-2H-pyridazin-3-one]
–	195 to 195.5 °C	COc1ccc(-c2cc(NS(C)(=O)=O)c(=O)n(Cc3ccccc3)n2)cc1 [Example 122, 2-benzyl-4-methanesulfonylamino-6-(4-methoxyphenyl)-2H-pyridazin-3-one]
–	200.2 to 201 °C	COc1ccc(-c2cc(NC(=O)NC(C)C)c(=O)n(Cc3ccccc3)n2)cc1 [Example 123, 2-benzyl-4-(3-isopropylureido)-6-(4-methoxyphenyl)-2H-pyridazin-3-one]
–	211 to 212 °C	NC(=O)c1cc(-c2ccc(F)c(Cl)c2)nn(CC=Cc2ccccc2)c1=O [Example 127, 4-carbamoyl-6-(3-chloro-4-fluorophenyl)-2-cinnamyl-2H-pyridazin-3-one]

Continued, compound first:

SMILES	IC50 [1] [µM]	melting point
COc1ccc(-c2cc(=O)n(CCCl)nc2-c2ccc(OC)cc2)cc1 [Comp. Comp'd 1, reference compound]	29	–
COc1ccc(-c2cc(=O)n(CCO)nc2-c2ccc(OC)cc2)cc1 [Comp. Comp'd 2, reference compound]	46	–
COc1ccc(-c2cc(=O)[nH]nc2-c2ccc(OC)cc2)cc1 [Comp. Comp'd 4, reference compound]	31.6	–
CNC(=O)c1cc(-c2ccc(OC)cc2)nn(CC(C)C)c1=O [Example 43, 2-Isobutyl-6-(4-methoxyphenyl)-4-methylcarbamoyl-2H-pyridazin-3-one]	0.357	124.9 to 125.2 °C
CNC(=O)c1cc(-c2ccc(OC)cc2)nn(CC2CC2)c1=O [Example 61, 2-Cyclopropylmethyl-6-(4-methoxyphenyl)-4-methylcarbamoyl-2H-pyridazin-3-one]	0.038	136.6 to 137.5 °C
CNC(=O)c1cc(-c2ccc(OC)c(F)c2)nn(CC2CC2)c1=O [Example 63, 2-Cyclopropylmethyl-6-(3-fluoro-4-methoxyphenyl)-4-methylcarbamoyl-2H-pyridazin-3-one]	0.31	–
CCNC(=O)c1cc(-c2ccc(OC)cc2)nn(CC2CC2)c1=O [Example 66, 2-Cyclopropylmethyl-4-ethylcarbamoyl-6-(4-methoxyphenyl)-2H-pyridazin-3-one]	0.11	136.3 to 136.9 °C
CCCCOC(=O)Nc1cc(-c2ccc(OC)cc2)nn(CC=Cc2ccc(Cl)cc2)c1=O [Example 89, 4-n-butoxycarbonylamino-2-(4-chlorocinnamyl)-6-(4-methoxyphenyl)-2H-pyridazin-3-one]	–	150.2 to 150.9 °C
COc1ccc(-c2cc(C(=O)O)c(=O)n(CC=C(C)C)n2)cc1 [Example 92, 4-carboxy-6-(4-methoxyphenyl)-2-(3-methyl-2-butenyl)-2H-pyridazin-3-one]	–	153.5 to 156.6 °C
COc1ccc(-c2cc(N)c(=O)n(Cc3ccccc3)n2)cc1 [Example 121, 4-amino-2-benzyl-6-(4-methoxyphenyl)-2H-pyridazin-3-one]	–	115.1 to 115.6 °C
COc1ccc(-c2cc(N)c(=O)n(CC3CC3)n2)cc1 [Example 124, 4-amino-2-cyclopropylmethyl-6-(4-methoxyphenyl)-2H-pyridazin-3-one]	–	110.8 to 111.3 °C
COc1ccc(-c2cc(NC(=O)NC(C)C)c(=O)n(CC3CC3)n2)cc1 [Example 125, 2-cyclopropylmethyl-4-(3-isopropylureido)-6-(4-methoxyphenyl)-2H-pyridazin-3-one]	–	195.8 to 197 °C
COc1ccc(-c2cc(NS(C)(=O)=O)c(=O)n(CC3CC3)n2)cc1 [Example 126, 2-cyclopropylmethyl-4-methanesulfonylamino-6-(4-methoxyphenyl)-2H-pyridazin-3-one]	–	203.3 to 203.9 °C
CNC(=O)C1CC(c2ccc(OC)cc2)=NN(CC(C)C)C1=O (centres unmarked) [Example 128, 4,5-dihydro-2-isobutyl-6-(4-methoxyphenyl)-4-methylcarbamoyl-2H-pyridazin-3-one]	0.4	124.2 to 125 °C
CNC(=S)c1cc(-c2ccc(OC)c(F)c2)nn(CC2CC2)c1=O [Example 129, 2-cyclopropylmethyl-6-(3-fluoro-4-methoxyphenyl)-4-methylthiocarbamoyl-2H-pyridazin-3-one]	–	178 to 178.5 °C
CNC(=S)c1cc(-c2ccc(OC)cc2)nn(CC(C)C)c1=O [Example 130, 2-isobutyl-6-(4-methoxyphenyl)-4-methylthiocarbamoyl-2H-pyridazin-3-one]	–	116 to 116.6 °C
